Test results as given in patent EP4311580A1, “AMINOACID-FLUORIDE SALTS FOR MOUTH HYGIENE” (Schäfer, Rolf, priority 2022, dated 2024).
Like-named read-outs stand apart in the source and are kept apart here.

Legend:
MG-63 osteoblast cells [1] = experiment: Time to confluence of MG-63 osteoblast cells in tissue culture with fluoride compounds in the medium; details: for Time to confluence / Time to confluence (days): compounds at 1400ppm fluoride in cell growth media, 5x10cm tissue culture flasks, control without fluoride 4-5 days; for effect on osteoblast cells in culture (lysis / influence on growth / toxicity) / inhibition of cell growth: MG-63 osteoblasts; for effect on osteoblast cells in culture (lysis / influence on growth / toxicity): 1400ppm fluoride, result in words; for inhibition of cell growth: 1400ppm fluoride concentration, relative to control
MG-63 osteoblast cells [2] = test system: MG-63 osteoblast cells

Compound	Time to confluence (MG-63 osteoblast cells [1])	effect on osteoblast cells in culture (lysis / influence on growth / toxicity) (MG-63 osteoblast cells [1])	other results
CCOC(=O)[C@H](C)N.F.N [Alanine-O-ethylester-ammoniumfluoride]	5 to 6 days		
CCCCCCCCC=CCCCCCCCCN.F [Dectaflur, 9-octadecenylamine-hydrofluoride, reference compound]		lysing (dissolving the membrane) osteoblast cells	Time to confluence (days) (MG-63 osteoblast cells [1]): cell lysis
F.F.N.N.N[C@@H](Cc1c[nH]cn1)C(=O)O [Histidine-ammonium-difluoride]	7 to 8 days		
CCOC(=O)[C@@H](N)CCCCN [Lysine-O-ethylester-ε-ammoniumdifluoride]			Time to confluence (MG-63 osteoblast cells [2]): 5 to 6 days
NCCCCC(N)C(=O)O (stereo not shown) [Lysine-ε-ammonium-fluoride]		no influence of growth on osteoblasts	Time to confluence (MG-63 osteoblast cells [2]): 4 to 5 days; inhibition of cell growth (MG-63 osteoblast cells [1]): no inhibition at all
CCCCCCCCCCCCCCCCCCN(CCO)CCCN(CCO)CCO [Olaflur, reference compound]		lysing (dissolving the membrane) osteoblast cells	Time to confluence (days) (MG-63 osteoblast cells [1]): cell lysis
CCCCCCCCCCCCOS(=O)(=O)[O-].[Na+] [Sodium laurylsulfate (SDS), Sodium laurylsulfate, reference compound]		lysing (dissolving the membrane) osteoblast cells	Time to confluence (days) (MG-63 osteoblast cells [2]): cell lysis
NC(Cc1c[nH]c2ccccc12)C(=O)O (stereo not shown) [Tryptophan-N-ammonium-mono-hydrofluoride]	5 to 6 days		
CCOC(=O)[C@@H](N)Cc1c[nH]c2ccccc12 [Tryptophan-O-ethylester-N,N'-ammoniumdifluoride]	8 to 9 days		
CCOC(=O)[C@@H](N)Cc1ccc(O)cc1.F.N [Tyrosine-O-ethylester-ammoniumfluoride]	5 to 6 days		
Decalysine-ε-ammonium-decafluoride	8 to 9 days		inhibition of cell growth (MG-63 osteoblast cells [1]): 40-50%
Potassium fluoride [reference compound]			Time to confluence (MG-63 osteoblast cells [2]): 6 to 7 days
sodium fluoride [reference compound]			inhibition of cell growth (MG-63 osteoblast cells [1]): 20%
